Reference: patent US20260007746A1, “COMPOSITIONS AND METHODS FOR TREATMENT OF INFLAMMATORY DISORDERS” (priority 2020, published 2026)

system: ConA-stimulated splenocytes; test: Mitogen proliferative assay (MSC:splenocyte co-culture, BrdU); assay type: cell-based, mouse; details: mAdMSC:splenocyte 1:20 and 1:10; with or without HA or E-selectin pre-incubation
Protocol: Mitogen proliferative assays were performed as described previously (Yañez et al., 2006; Yanez et al., 2010). Briefly, splenocytes were isolated from C57BL/6 and BALB/c mice spleen cell suspensions by passage through 40-μm nylon cell strainers (Becton Dickinson), followed by red blood lysis with 0.83% ammonium chloride in 0.01 M Tris-HCl buffer pH 7.5 (Sigma-Aldrich). To induce splenocyte proliferation, 1×10^5 splenocytes were resuspended in RPMI 1640 medium (Gibco, Carlsbad, CA, United States) supplemented with 10% FBS (proliferation medium) and treated with 10 μg/ml concanavalin A (ConA) (Sigma-Aldrich). To assess for effect(s) on splenocyte proliferation, MSCs were resuspended in complete medium and seeded in wells together with splenocytes at decreasing ratios of MSC:splenocyte (from 1:1 to 1:100). After 3 days of MSC:splenocyte co-cultures, splenocyte proliferation was measured using an ELISA BrdU colorimetric kit (Roche Diagnostics). In brief, BrdU labeling reagent was added to wells 16 h before determination. Then, cells were fixed, DNA denatured and incubated with an anti-BrdU-POD antibody. After washing and substrate addition, absorbance was measured. In some experiments, UmAdMSCs and FucmAdMSCs, or FuchAdMSCs and FuchBMMSCs, were treated with sialidase from Vibrio cholerae (0.1 U/ml, Roche Diagnostics) to remove terminal sialic acids (i.e., sialUmAdMSCs and sialFucmAdMSCs, or sialFuchAdMSCs and sialFuchBMMSCs). As indicated, mMSCs or hMSCs were cultured for 24 h or 72 h with different concentrations of mE-Ig chimera or of hyaluronic acid (HA, from rooster comb; Sigma-Aldrich) for 24 h or 72 h following described protocols (Burdick et al., 2006; Thankamony and Sackstein, 2011). Briefly, mE-Ig or HA were immobilized on plates. […] In some experiments, cultures of mAdMSCs seeded on E-selectin and/or HA for 72 h were washed, then co-cultured in presence of continuous E-selectin and/or HA with murine splenocytes (at MSC:splenocyte ratio of 1:20) for 72 h in presence of ConA, and splenocyte proliferation was assessed. […]

Compound | proliferation of mitogen-stimulated splenocytes in mAdMSC co-cultures with inhibitor
Cn1cc(CC(N)C(=O)O)c2ccccc21 (racemic) [1-methyl-DL-tryptophan] | significantly rescued the proliferation
CNC(=N)NCCC[C@H](N)C(=O)O [N^G-monomethyl-L-arginine] | significantly rescued the proliferation
NC(=O)c1ccc(-c2nc(-c3ccc4c(c3)OCO4)c(-c3ccccn3)[nH]2)cc1 [SB-431542] | significantly rescued the proliferation
